Test results as given in PMC11973282, “RAS70 peptide targets multiforme glioblastoma by binding to the plasma membrane heat shock protein HSP70” (Frontiers in Oncology, 2025).
Where a SMILES comes first, the peptide text is derived from it. [ ]: non-standard residue; d: D form. βAla = NCCC(=O)O

Experiments:
[1] = tested on: human U87 glioblastoma cells; assay: Flow cytometry of FITC-labeled peptide internalization, 24 h (also with antibody pre-treatment); assay type: cell-based
Method: (§1) The binding of the TKD-sCy5, RAS70-sCy5, and NGL-RGD-sCy5 peptides were analyzed using a CytoFLEX flow cytometer (Beckman Coulter, USA). A single cell suspension of C6, GL261, T98G, U87, U251, ANI, IBD, TMS (0.15×10^6 cells in mL^-1) were incubated for 30 minutes on ice in the dark with peptides in concentration of 75 μg/mL, and then washed with cold PBS solution. Cells without peptides were used as controls. To evaluate incorporation of the fluorescently-labeled peptides for longer period of co-incubation of 24 h cells (C6, GL261, U87, U251) were treated with FITC-labeled peptides, then washed with PBS and assessed on a CytoFLEX flow cytometer (Beckman Coulter, USA). Following FACS analysis cell pellet was further evaluated employing confocal microscopy Leica TCS SP8 (Leica Microsystems, Germany).
(§2) The incorporation of peptides over longer periods of co-incubation with brain tumor cells was additionally analyzed using a Cytomics FC500 flow cytometer (BeckmanCoulter, USA). Tumor cells (C6, GL261, U87, U251) were incubated with peptides (concentration 50 μg/mL) for 24 hours, washed with PBS. Internalization of FITC-labeled peptides was assessed by determining the mean fluorescence intensity (MFI). According to the study data ( Figure 6A ), it was shown that TKD peptide accumulated in all cell lines – 2120 ± 152 (C6), 2099 ± 107 (GL261), 2145 ± 189 (U87), 2373 ± 201 (U251) compared to the control scramble peptide (NGL) – 378 ± 48 (C6), 344 ± 57 (GL261), 301 ± 66 (U87), 313 ± 56 (U251) (P<0.001). […] Following FACS analysis the cell pellet was collected and evaluated for peptides cell uptake employing confocal microscopy ( Figure 6B ). The obtained microscopy data confirmed higher accumulation of RAS70 peptide in studied cell lines as compared to TKD or scramble peptides.
(§3) Figure 6 Evaluation of the mHsp70-targeting peptides internalization by glioma cells. (A) Flow cytometric evaluation of FITC-labeled peptide accumulation in tumor cell lines (rat glioma C6, mouse glioma GL261, human glioblastoma U87 and U251) after co-incubation for 24 hours. […] (B) Confocal microscopy assessment of FITC-labeled peptide accumulation in tumor cell lines (rat glioma C6, mouse glioma GL261, human glioblastoma U87 and U251) after co-incubation for 24 hours. […] (C) Analysis of the peptides uptake by human U87 glioblastoma cells following co-incubation for 24 hours.
To evaluate the mHsp70-mediated uptake of the peptides prior to co-incubation with either TKD or RAS70 peptides cells were pre-treated with anti-Hsp70 antibodies (SPA-810, SPA-815) that are known to target the membrane-bound chaperone on cancer cells ([37]). […] The tripeptide RGD (Arg-Gly-Asp) motif is known to bind to integrins, including αvβ3 and αvβ5 expressed on brain tumor cells and tumor endothelial cells ([38], [39]). […] As expected, we observed the decrease of NGL-RGD and RAS70 internalization by tumor cells but not of TKD or NGL peptides ( Figure 6C ).

[2] = tested on: C6, GL261, and T98G cells; assay: MTT test, overall statement for all cell lines studied; settings: fluorescently labeled peptides, 7.5, 75, 750 µg/mL, 24, 48 and 72 hours
Method: 3-(4,5-dimethylthiazol-2-yl)-2,5-diphenyltetrazolium bromide (MTT) assay was performed to evaluate the cytotoxic effect of TKD-sCy5, RAS70-sCy5, and NGL-RGD-sCy5 peptides. The C6, GL261, and T98G cells were seeded in 96-well plates (Thermo Fisher Scientific, Waltham, USA) at concentration of 5*10^3 cells in 100 µL per well, plates were incubated at 37°C in 5% CO2. After 24 hours, peptides were added to the culture medium for final concentration of 7.5, 75, and 750 μg/mL; plates were incubated for 24, 48 and 72 hours. […] At the end of the incubation period, 1 mg/mL MTT solution was added for 4 hours and dissolved with DMSO. The absorbance was measured at 570 nm using Varioskan LUX Multimode Microplate Reader (Thermo Fisher Scientific, Waltham, USA).
Subsequently, we analyzed the cytotoxic effect of the peptides (RAS70, TKD, NGL, NGL-RGD) using the MTT test at various peptides concentrations (7.5, 75, 750 µg/mL) and co-incubation times of 24, 48 and 72 hours.

[3] = tested on: GL261 cells (lower chamber; HUVEC and astrocytes barrier)
Method: (§4) Then, a peptide labeled with a fluorescent label was introduced into the upper chamber and co-incubation was carried out for 12, 24 and 36 hours. At the end of the incubation, the tumor cells were washed with cold phosphate-buffered saline (PBS) and fixed with a 4% solution of paraformaldehyde in PBS. Nuclei were stained with 4’,6-diamidino-2-phenylindole (DAPI). Fluorescent images were obtained using a Leica TCS SP8 confocal microscope (Leica, Germany). To avoid possible cross-interference of different fluorochromes, images for DAPI and FITC were obtained using a sequential sample scanning method. Fluorescently labeled cells were counted in the lower chamber. To estimate the mHsp70-mediated uptake of chaperone-targeted peptides tumor cells prior to incubation were pre-treated with anti-Hsp70 monoclonal antibodies SPA-810 (1:250, Stressgen) and SPA-815 (1:250 Stressgen). To exclude integrin (αvβ3, αvβ5)-mediated penetration of RAS70 tumor cells prior to incubation with peptides were pre-treated with anti- αvβ3 (1:200 clone LM609, ZMS1030, Sigma-Aldrich, USA), -αvβ5 (1:200 clone P1F6, MAB1961Z, Sigma-Aldrich, USA) monoclonal antibodies.
(§5) Then, a peptide labeled with a fluorescent dye (FITC) was introduced into the upper chamber and co-incubation was carried out for 12, 24 and 36 hours. At the end of the incubation, the tumor cells were washed with cold phosphate-buffered saline (PBS) and fixed with a 4% solution of paraformaldehyde in PBS. Nuclei were stained with 4’,6-diamidino-2-phenylindole (DAPI).
(§6) Data from 3 independent experiments are presented as M ± SE. […] Data from 3 independent experiments are presented as M ± SE. ** p < 0.01 for testing mean expression levels.

[4] = tested on: U87 cells (lower chamber; HUVEC and astrocytes barrier); assay: Transwell BBB model, peptide passage and accumulation in tumor cells (also with antibody pre-treatment); assay type: in vitro ADME, human
From the text: Fluorescently labeled cells were counted in the lower chamber.
Next, we assessed the mHsp70- and integrin (αvβ3, αvβ5)-mediated penetration of the TKD and RAS70 via the BBB ( Figure 9B ). […] When anti-αvβ3 and anti-αvβ5 mAbs were employed, we detected the decrease of NGL-RGD and RAS70 penetration via the BBB but not the NGL and TKD peptides.

C6 (rat glioma) cells = assay: Flow cytometry of FITC-labeled peptide internalization, 24 h; assay type: cell-based; settings: 50 μg/mL, M ± SE, 3 independent experiments
Method: as §1, §2, §3

[5] = tested on: human glioblastoma U251 cells; assay: as above; assay type: cell-based; settings: 50 μg/mL, M ± SE, 3 independent experiments
Method: as §1, §2, §3

[6] = tested on: GL261 (mouse glioma) cells; assay: as above; assay type: cell-based; settings: 50 μg/mL, M ± SE, 3 independent experiments
Method: as §1, §2, §3

[7] = tested on: U251 cells (lower chamber; HUVEC and astrocytes barrier)
Method: as §4, §5, §6

[8] = tested on: C6 cells (lower chamber; HUVEC and astrocytes barrier)
Method: as §4, §5, §6

Row | fluorescently labeled tumor cells in the lower chamber [3] | fluorescently labeled tumor cells in the lower chamber ([4]; transwell BBB model: HUVEC (5×10^5) and astrocytes (5×10^5) in upper chamber, U87 (1×10^4) in lower chamber, FITC-labeled peptide, 36 hours, confocal microscopy count, M ± SE, 3 independent experiments) | penetration via the BBB after combined anti-αvβ3, anti-αvβ5 and anti-Hsp70 mAbs ([4]; transwell, U87 cells, combined antibody treatment) | fluorescently labeled tumor cells in the lower chamber [7] | fluorescently labeled tumor cells in the lower chamber [8] | Molecule | peptide internalization after pre-treatment with anti-αvβ3 and -αvβ5 antibodies ([1]; U87, 24 hours, cells pre-treated with anti-αvβ3 (LM609) and anti-αvβ5 (P1F6) mAbs (1:200)) | peptide uptake after pre-treatment with both anti-Hsp70 and anti-αvβ3/-αvβ5 mAbs ([1]; U87, 24 hours, combination of antibodies) | cytotoxic effect (MTT test) [2] | mean fluorescence intensity (MFI), internalization of FITC-labeled peptide ([1]; U87, 50 μg/mL, 24 hours, flow cytometry, M ± SE, 3 independent experiments) | mean fluorescence intensity (MFI), internalization of FITC-labeled peptide (C6 (rat glioma) cells) | mean fluorescence intensity (MFI), internalization of FITC-labeled peptide [5] | mean fluorescence intensity (MFI), internalization of FITC-labeled peptide [6]
1 | – | – | – | – | – | CC(C)C[C@H](NC(=O)CNC(=O)[C@@H](N)CC(N)=O)C(=O)N[C@H](C(=O)N[C@@H](CC(C)C)C(=O)N[C@@H](CCCCN)C(=O)N[C@@H](CC(N)=O)C(=O)N[C@@H](CC(=O)O)C(=O)N[C@@H](Cc1ccccc1)C(=O)N[C@@H](CO)C(=O)N[C@@H](CCCNC(=N)N)C(=O)N[C@@H](CC(C)C)C(=O)N[C@@H](CCC(=O)O)C(=O)NCC(=O)NCCC(=O)N[C@@H](CCCNC(=N)N)C(=O)NCC(=O)N[C@@H](CC(=O)O)C(=O)O)[C@@H](C)O [NGL-RGD] (H-NGLTLKNDFSRLEG[βAla]RGD-OH) | decrease | significant abrogation | did not reveal the toxic effect | – | – | – | –
2 | 188 ± 47 cells | 211 ± 41 cells | excluding | 221 ± 38 cells | 211 ± 29 cells | NGLTLKNDFSRLEG | – | – | – | 301 ± 66 | 378 ± 48 | 313 ± 56 | 344 ± 57
